Source: patent publication US20140162980A1, “NOVEL MICROBIOCIDAL DIOXIME ETHER DERIVATIVES” (SYNGENTA CROP PROTECTION LLC, priority 2010, published 2014)

Legend:
Phytophthora infestans = assay: whole plant or invertebrate; format: in vivo; conditions: in Solanum lycopersicum, foliar, read-out: control of Phytophthora infestans (percent disease control compared to untreated)
[1] = test system: Thanatephorus cucumeris (Rhizoctonia solani); assay: Thanatephorus cucumeris (Rhizoctonia solani) / liquid culture (foot rot, damping-off); format: cell-based; conditions: PDB potato dextrose broth, 24° C., 3-4 days after application, read-out: control of Thanatephorus cucumeris (inhibition of growth, photometrically)
Method: Thanatephorus Cucumeris (Rhizoctonia solani)/Liquid Culture (Foot Rot, Damping-Off): Mycelia fragments of a newly grown liquid culture of the fungus are directly mixed into nutrient broth (PDB potato dextrose broth). After placing a DMSO solution of the test compounds into a 96-well microtiter plate at an application rate 200 ppm, the nutrient broth containing the fungal material was added. The test plates were incubated at 24° C. and the inhibition of growth was determined photometrically 3-4 days after application.

[2] = test system: Blumeria graminis f. sp. tritici (Erysiphe graminis f. sp. tritici); assay: Blumeria graminis f. sp. tritici / wheat / leaf disc preventative (powdery mildew on wheat); format: in vivo; conditions: foliar, wheat leaf segments cv. Kanzler, inoculated 1 day after application, assessed 6-8 days after application, read-out: control of Blumeria graminis (percent disease control compared to untreated)
Method: Blumeria Graminis f. Sp. Tritici (Erysiphe Graminis f. Sp. Tritici)/Wheat/Leaf Disc Preventative (Powdery Mildew on Wheat):
Wheat leaf segments cv. Kanzler were placed on agar in a 24-well plate and sprayed with the formulated test compound diluted in water at an application rate of 200 ppm. The leaf disks were inoculated by shaking powdery mildew infected plants above the test plates 1 day after application. The inoculated leaf disks were incubated at 20° C. and 60% relative humidity under a light regime of 24 h darkness followed by 12 h/12 h (dark/light) in a climate chamber and the activity of a compound was assessed as percent disease control compared to untreated when an appropriate level of disease damage appears on untreated check leaf segments (6-8 days after application). The following compounds gave at least 80% control of Blumeria graminis: […]

[3] = test system: Puccinia recondita f. sp. tritici; assay: Puccinia recondita f. sp. tritici / wheat / leaf disc curative (brown rust); format: in vivo; conditions: foliar, 200 ppm applied 1 day after inoculation, wheat leaf segments cv Kanzler, assessed 6-8 days after application, read-out: control of Puccinia recondita f. sp. tritici, curative (percent disease control compared to untreated)
Method: Puccinia Recondita f. Sp. Tritici/Wheat/Leaf Disc Curative (Brown Rust): Wheat leaf segments cv Kanzler were placed on agar in 24-well plates. The leaf segments were inoculated with a spore suspension of the fungus. The plates were stored in darkness at 19° C. and 75% relative humidity. The formulated test compound diluted in water was applied at an application rate of 200 ppm 1 day after inoculation.

[4] = test system: Phaeosphaeria nodorum (Septoria nodorum); assay: Phaeosphaeria nodorum (Septoria nodorum) / wheat / leaf disc preventative (glume blotch); format: in vivo; conditions: Parastagonospora nodorum, foliar, wheat leaf segments cv Kanzler, inoculated 2 days after application, assessed 5-7 days after application, read-out: control of Phaeosphaeria nodorum (percent disease control compared to untreated)
Method: Phaeosphaeria Nodorum (Septoria nodorum)/Wheat/Leaf Disc Preventative (Glume Blotch): Wheat leaf segments cv Kanzler were placed on agar in a 24-well plate and sprayed with formulated test compound diluted in water at an application rate of 200 ppm. The leaf disks are inoculated with a spore suspension of the fungus 2 days after application. The inoculated test leaf disks are incubated at 20° C. and 75% relative humidity under a light regime of 12/12 h (light/dark) in a climate cabinet and the activity of a compound is assessed as percent disease control compared to untreated when an appropriate level of disease damage appears in untreated check leaf disks (5-7 days after application).

Pythium ultimum = Pythium ultimum / liquid culture (seedling damping off); format: cell-based; conditions: Globisporangium ultimum, PDB potato dextrose broth, 24° C., 2-3 days after application, read-out: control of Pythium ultimum (inhibition of growth, photometrically)
Method: Pythium Ultimum/Liquid Culture (Seedling Damping Off): Mycelia fragments and oospores of a newly grown liquid culture of the fungus were directly mixed into nutrient broth (PDB potato dextrose broth). After placing a DMSO solution of test compound into a 96 well microtiter plate at an application rate 200 ppm, the nutrient broth containing the fungal mycelia/spore mixture was added. The test plates were incubated at 24° C. and the inhibition of growth was determined photometrically 2-3 days after application.

[5] = test system: Puccinia recondita f. sp. tritici; assay: Puccinia recondita f. sp. tritici / wheat / leaf disc preventative (brown rust); format: in vivo; conditions: foliar, wheat leaf segments cv Kanzler, inoculated 1 day after application, assessed 7-9 days after application, read-out: control of Puccinia recondita f. sp. tritici, preventative (percent disease control compared to untreated)
Method: Puccinia Recondita f. Sp. Tritici/Wheat/Leaf Disc Preventative (Brown Rust): Wheat leaf segments cultivated variety (cv) Kanzler were placed on agar in 24-well plates and sprayed with formulated test compound diluted in water at an application rate of 200 ppm. The leaf disks were inoculated with a spore suspension of the fungus 1 day after application. The inoculated leaf segments were incubated at 19° C. and 75% relative humidity under a light regime of 12/12 h (light/dark) in a climate cabinet and the activity of a compound was assessed as percent disease control compared to untreated when an appropriate level of disease damage appears in untreated check leaf segments (7-9 days after application).

Pyrenophora teres = Pyrenophora teres / barley / leaf disc preventative (net blotch); format: in vivo; conditions: foliar, barley leaf segments cv Hasso, inoculated two days after application, assessed 5-7 days after application, read-out: control of Pyrenophora teres (disease control compared to untreated)
Method: Pyrenophora Teres/Barley/Leaf Disc Preventative (Net Blotch): Barley leaf segments cv Hasso are placed on agar in a 24-well plate and sprayed with formulated test compound diluted in water at an application rate of 200 ppm. The leaf segments are inoculated with a spore suspension of the fungus two days after application of the test solution. The inoculated leaf segments are incubated at 20° C. and 65% relative humidity under a light regime of 12/12 h (light/dark) in a climate cabinet and the activity of a compound is assessed as disease control compared to untreated when an appropriate level of disease damage appears in untreated check leaf segments (5-7 days after application).

[6] = test system: Botryotinia fuckeliana (Botrytis cinerea); assay: Botryotinia fuckeliana (Botrytis cinerea) / liquid culture (gray mould); format: cell-based; conditions: Vogels broth, 24° C., 3-4 days after application, read-out: control of Botryotinia fuckeliana (inhibition of growth, photometrically)
Method: Botryotinia Fuckeliana (Botrytis cinerea)/Liquid Culture (Gray Mould): Conidia of the fungus from cryogenic storage were directly mixed into nutrient broth (Vogels broth). After placing a DMSO solution of test compound into a 96-well microtiter plate at an application rate 200 ppm, the nutrient broth containing the fungal spores was added. The test plates were incubated at 24° C. and the inhibition of growth was determined photometrically 3-4 days after application.

Alternaria solani = Alternaria solani / tomato / leaf disc (early blight); format: in vivo; conditions: foliar, tomato leaf disks cv. Baby, inoculated 2 days after application, assessed 5-7 days after application, read-out: control of Alternaria solani (percent disease control compared to untreated)
Method: Alternaria Solani/Tomato/Leaf Disc (Early Blight): Tomato leaf disks cv. Baby are placed on agar in multiwell plates (24-well format) and sprayed with the formulated test compound diluted in water at an application rate of 200 ppm. The leaf disks are inoculated with a spore suspension of the fungus 2 days after application. The inoculated leaf disks are incubated at 23° C./21° C.

Plasmopara viticola = assay: whole plant or invertebrate; format: in vivo; conditions: foliar, read-out: control of Plasmopara viticola (percent disease control compared to untreated)
[7] = test system: Magnaporthe grisea (Pyricularia oryzae); assay: whole plant or invertebrate; format: in vivo; conditions: foliar, read-out: control of Magnaporthe grisea (percent disease control compared to untreated)

Cc1ccc2c(n1)/C(=N/OCC(C)(C)CO/N=C1\CCCc3ccc(C)nc31)CCC2 [P.02]
≥ 80%: pest or weed control at 200 ppm (Phytophthora infestans) | inhibition at 200 ppm [1] | pest or weed control at 200 ppm [2] | pest or weed control at 200 ppm [3] | pest or weed control at 200 ppm [4] | inhibition at 200 ppm (Pythium ultimum) | pest or weed control at 200 ppm [5] | pest or weed control at 200 ppm (Pyrenophora teres) | inhibition at 200 ppm [6]

Cc1ccc2c(n1)/C(=N/OCC(CO/N=C1\CCCc3ccc(C)nc31)c1ccccc1)CCC2 (stereo not shown) [P.04]
≥ 80%: pest or weed control at 200 ppm (Phytophthora infestans) | pest or weed control at 200 ppm [2] | pest or weed control at 200 ppm [3] | pest or weed control at 200 ppm [4] | pest or weed control at 200 ppm [5] | pest or weed control at 200 ppm (Pyrenophora teres) | inhibition at 200 ppm [6]

Cc1ccc2c(n1)/C(=N/OCCCO/N=C1\CCCc3ccc(C)nc31)CCC2 [P.05]
≥ 80%: pest or weed control at 200 ppm (Phytophthora infestans) | pest or weed control at 200 ppm [2] | pest or weed control at 200 ppm (Alternaria solani) | pest or weed control at 200 ppm [3] | pest or weed control at 200 ppm [4] | inhibition at 200 ppm (Pythium ultimum) | pest or weed control at 200 ppm [5] | pest or weed control at 200 ppm (Pyrenophora teres) | inhibition at 200 ppm [6]

C=C(CO/N=C1\CCCc2ccc(C)nc21)CO/N=C1\CCCc2ccc(C)nc21 [P.07]
≥ 80%: pest or weed control at 200 ppm [2] | pest or weed control at 200 ppm (Alternaria solani) | pest or weed control at 200 ppm [3] | pest or weed control at 200 ppm [4] | inhibition at 200 ppm (Pythium ultimum) | pest or weed control at 200 ppm [5] | pest or weed control at 200 ppm (Pyrenophora teres) | inhibition at 200 ppm [6]

Cc1ccc2c(n1)/C(=N/OCC(C)CO/N=C1\CCCc3ccc(C)nc31)CCC2 (stereo not shown) [P.09]
≥ 80%: pest or weed control at 200 ppm (Phytophthora infestans) | pest or weed control at 200 ppm [2] | pest or weed control at 200 ppm (Alternaria solani) | pest or weed control at 200 ppm [3] | pest or weed control at 200 ppm [4] | inhibition at 200 ppm (Pythium ultimum) | pest or weed control at 200 ppm [5] | pest or weed control at 200 ppm (Pyrenophora teres) | inhibition at 200 ppm [6]

COc1ccc2c(n1)/C(=N/OCC1(CO/N=C3\CCCc4ccc(OC)nc43)CC1)CCC2 [P.13]
≥ 80%: inhibition at 200 ppm [1] | pest or weed control at 200 ppm [2] | pest or weed control at 200 ppm [3] | pest or weed control at 200 ppm [4] | pest or weed control at 200 ppm [5] | pest or weed control at 200 ppm (Pyrenophora teres) | inhibition at 200 ppm [6]

Cc1ccc2c(n1)/C(=N/OC[Si](C)(C)CO/N=C1\CCCc3ccc(C)nc31)CCC2 [P.20]
≥ 80%: inhibition at 200 ppm [1] | pest or weed control at 200 ppm [2] | pest or weed control at 200 ppm (Alternaria solani) | pest or weed control at 200 ppm [3] | pest or weed control at 200 ppm [4] | inhibition at 200 ppm (Pythium ultimum) | pest or weed control at 200 ppm [5] | pest or weed control at 200 ppm (Pyrenophora teres) | inhibition at 200 ppm [6]

Cc1ccc2c(n1)/C(=N/OCC(C)(C)CO/N=C1\CCCc3cccnc31)CCC2 [P.23]
≥ 80%: pest or weed control at 200 ppm (Phytophthora infestans) | pest or weed control at 200 ppm [2] | pest or weed control at 200 ppm [3] | pest or weed control at 200 ppm [4] | inhibition at 200 ppm (Pythium ultimum) | pest or weed control at 200 ppm [5] | pest or weed control at 200 ppm (Pyrenophora teres)

Cc1ccc2c(n1)/C(=N/OCCCO/N=C1\CCCc3c(-c4ccccc4)cc(C)nc31)CCC2 [P.31]
≥ 80%: pest or weed control at 200 ppm (Plasmopara viticola) | inhibition at 200 ppm [1] | pest or weed control at 200 ppm [2] | pest or weed control at 200 ppm (Alternaria solani) | pest or weed control at 200 ppm [3] | pest or weed control at 200 ppm [4] | inhibition at 200 ppm (Pythium ultimum) | pest or weed control at 200 ppm [5] | pest or weed control at 200 ppm (Pyrenophora teres) | inhibition at 200 ppm [6]

CCOc1cc(C)nc2c1CCC/C2=N\OCCCO/N=C1\CCCc2ccc(C)nc21 [P.32]
≥ 80%: pest or weed control at 200 ppm (Phytophthora infestans) | pest or weed control at 200 ppm [7] | pest or weed control at 200 ppm (Plasmopara viticola) | pest or weed control at 200 ppm [2] | pest or weed control at 200 ppm [4] | pest or weed control at 200 ppm [5] | pest or weed control at 200 ppm (Pyrenophora teres) | inhibition at 200 ppm [6]

CC(C)(CO/N=C1\CCCc2cc3c(nc21)CCCC3)CO/N=C1\CCCc2cc3c(nc21)CCCC3 [P.50]
≥ 80%: inhibition at 200 ppm [1] | pest or weed control at 200 ppm [2] | pest or weed control at 200 ppm [4] | pest or weed control at 200 ppm (Pyrenophora teres) | inhibition at 200 ppm [6]
